Laboratory results published in patent US7560591B2, “Benzamidine derivatives having anti-inflammatory and immunosuppressive activity” (Rotta Research Laboratorium S.p.A., priority 2001, dated 2009).
pIC50: −log10 of the molar value. Where two headings read alike, the source gives them in different places.

Legend:
[1] = system: extravasation in the ears of mice; test: Extravasation (Evans Blu) induced by phlogogenic agents in the ears of mice; assay type: in vivo; settings: for % inhibition of extravasation, PAF: 1 h; for % inhibition of extravasation, Zymosan: 2 h; for % inhibition of extravasation, Arachidonic Acid / % inhibition of extravasation, Bradykinin / % inhibition of extravasation, Histamine: 30 min; for ED50: OS, mouse ear
Protocol: b) Some of the compounds of the invention, such as compounds I-4, I-11 and I-31, were evaluated in vivo in a series of experimental extravasation models in which 5 μl of the preselected phlogogenic agent dissolved in physiological solution was injected intradermally into the ears of mice as described by Erdo et al., with slight modifications [Agents and Actions 39, 137-142 (1993)].
The products under test were administered orally 1 hour before the challenge and, 30 minutes before the challenge, the dye Evans Blu was injected intravenously in a dose of 100 mg/kg. The animals were killed at a time predetermined according to the test, 30 min.—2 hours after the challenge. The extravasation was evaluated by determining the quantity of dye present in the ear, extracted after homogenisation of the tissue in 2 ml of formamide and incubation at 50° C. for 2 hours. After centrifuging, the amount of dye was determined by measuring the absorption at 620 nm. The maximum % effect (% MPE) was calculated by the following formula:
[formula] in which EV is the mean absorption observed in the group of animals treated solely with the phlogogenic agent, ED is the group treated with the phlogogenic agent and the drug, and EB is the base value, that is, the value for the animals injected with physiological solution alone.
The phlogogenic agents used were:
Arachidonic acid (dissolved in EtOH); (1 mg/mouse; killed+30 min); histamine (3 nmoli/mouse; killed+30 min); PAF (30 pmoli/mouse; killed+60 min); Zymosan (10 μg/mouse; killed+120 min); bradykinin (0.6 nmoli/mouse; killed+30 min).

[2] = system: colitis induced by TNBS in rats; test: Colitis induced by TNBS in rats; assay type: in vivo, rat; settings: for Weight of the colon: 48 hours after TNBS; for Weight of the colon / Myeloperoxidase activity / iNOS activity / Macroscopic damage (MDS): mean ± SD; for Myeloperoxidase activity / iNOS activity: colon tissue; for Macroscopic damage (MDS): score 0-10
Source text: The combined capability of some of the compounds of the invention to inhibit both iNOS and the synthesis of TNFα has led to their activity being checked in an experimental model of colitis caused by a chemical hapten, trinitrobenzene-sulphonic acid (TNBS), which can bind to the tissue proteins and stimulate cell-mediated immunity. The intrarectal administration of TNBS in association with ethanol causes acute inflammation characterised by extensive ulceration and necrosis.
A distal colitis was therefore induced in the rat by intrarectal instillation of TNBS (40 mg/kg) dissolved in 50% ethanol (0.5 ml/rat). The drugs were administered orally twice a day on days −2; −1; 0; +1 and the animals were killed 48 hours after the administration of TNBS.
The parameters examined were: total weight of the colon (g), macroscopic tissue damage “score”, measurement of the tissue myeloperoxidase (MPO) activity, which is a marker of the infiltration of the neutrophiles, and measurement of the iNOS activity (pmoles/g tissue/min.).
The macroscopic score (MDS) was taken on about 10 cm of colon in accordance with the following arbitrary scale:
The tissue MPO measurement was performed according to Velgara et al., JPET 1994. The measurement of the tissue nitrites was performed by applying the method described above for the chondrocytes to the supernatant fluid of the tissue homogenate.
Compound I-4, administered in doses of 5, 10 and 20 mg/kg, and compound I-11 were examined, by administering them orally, in comparison with sulphasalazine (250 mg/kg) and 5-aminosalicylic acid (5-ASA) (100 mg/kg), 2 drugs which are widely used in the treatment of ulcerative colitis.

[3] = system: neutral proteases (metalloproteases); test: Inhibition of neutral proteases (metalloproteases) in supernatant of IL-1β-stimulated rabbit joint chondrocytes, azocoll substrate; assay type: biochemical; settings: IL-1β 1 ng/ml, 48 hours, APMA-activated supernatant, read-out: MP (metalloproteases) IC50
Protocol: a) The activity in inhibiting the formation of NO, measured as NO2^− (nitrites), PGE2, and neutral protease, was investigated in vitro on culture broths of rabbit joint chondrocytes stimulated by cytokine IL-1β (1 ng/ml) for 48 hours. For the preparation of the chondrocytes, the method described by Berenbaum et al [FEBS Letters 340, 51-55 (1994)] was followed. Briefly, fragments of cartilage removed under sterile conditions from the heads of rabbit shoulder, hip and knee joints were chopped finely and digested at 37° C. by hyaluronidase, trypsin and collagenase solutions, giving rise, after filtration on sterile gauze and centrifuging at 600×g and suitable dilution with 10% DMEM-FCS, to a concentration of approximately 1×10^5 cells per well. The cells were kept in these conditions until confluence (about 15 days), the broth being changed every 3 days. At this point, the products under test, dissolved in the medium, were added to each test sample and, after 20 minutes, 350 μl IL-1β was added in order to have a final concentration of 1 ng/ml. The duration of the stimulation was 48 hours at 37° C. (incubation air-CO2 7%). Measurement of the nitrites, as described by Green et al. [Anal. Biochem. 126, 131-138 (1982)], and of the PGE2s by RIA measurement, was then performed on the cell supernatant fluid. The measurement of the neutral proteases was performed in the cell supernatant fluid containing the p-aminophenyl mercury acetate (APMA) activator with the use of azocoll as the substrate and with incubation at 37° C. for 17 h as described by Chavira et al. [Anal. Biochem. 136, 446-450 (1984)]. In order to evaluate the direct inhibitory effect of the compounds under test on the hydrolytic activity of the cell supernatant fluid, they were added to the supernatant fluid containing the proteases induced by IL-1β and already activated by AMPA.
The results obtained are shown in Table 3, in which the IC50, that is, the concentration (micromolar) of antagonist which can inhibit the formation of nitrites, PGE2s, and neutral proteases, respectively, by 50% relative to the control group, that is, to the cells stimulated with IL-1β but without the addition of antagonists, is given for some of the compounds of the invention already given by way of example in Table 2.

CCCCCNC(=S)Nc1ccc(NC(C)=N)cc1 [Compound I-4, N-[4-(N-acetamidine)phenyl]-N′-pentyl Thiourea]
% inhibition of extravasation, PAF ([1]; 2.5 mg/kg OS, PAF): 41.9%
% inhibition of extravasation, Zymosan ([1]; 2.5 mg/kg OS, Zymosan): 40.0%
% inhibition of extravasation, Arachidonic Acid ([1]; 5 mg/kg OS): 37.8%
% inhibition of extravasation, Bradykinin ([1]; 5 mg/kg OS): 30.1%
% inhibition of extravasation, Histamine ([1]; 5 mg/kg OS): 17.8%
% inhibition of extravasation, PAF ([1]; 5 mg/kg OS, PAF): 49.9%
% inhibition of extravasation, Zymosan ([1]; 5 mg/kg OS, Zymosan): 66.6%
% inhibition of extravasation, Arachidonic Acid ([1]; 10 mg/kg OS): 40.0%
% inhibition of extravasation, Bradykinin ([1]; 10 mg/kg OS): 30.7%
% inhibition of extravasation, Histamine ([1]; 10 mg/kg OS): 27.7%
% inhibition of extravasation, PAF ([1]; 10 mg/kg OS, PAF): 55.1%
% inhibition of extravasation, Zymosan ([1]; 10 mg/kg OS, Zymosan): 65.8%
% inhibition of extravasation, Arachidonic Acid ([1]; 20 mg/kg OS): 52.6%
% inhibition of extravasation, Bradykinin ([1]; 20 mg/kg OS): 49.1%
% inhibition of extravasation, Histamine ([1]; 20 mg/kg OS): 38.8%
% inhibition of extravasation, PAF ([1]; 20 mg/kg OS, PAF): 56.4%
% inhibition of extravasation, Zymosan ([1]; 20 mg/kg OS, Zymosan): 83.9%
% inhibition of extravasation, Arachidonic Acid ([1]; 40 mg/kg OS): 55.5%
% inhibition of extravasation, Bradykinin ([1]; 40 mg/kg OS): 51.3%
% inhibition of extravasation, Histamine ([1]; 40 mg/kg OS): 52.5%
% inhibition of extravasation, PAF ([1]; 40 mg/kg OS, PAF): 66.2%
% inhibition of extravasation, Zymosan ([1]; 40 mg/kg OS, Zymosan): 89.8%
% inhibition of extravasation, Zymosan ([1]; 80 mg/kg OS, Zymosan): 95.5%
inhibition at 5 mg/kg ([1]; Mus musculus, 5 mg/kg, models other than Zymosan, read-out: mean inhibitory effect in the other extravasation models): ~35%
ED50 ([1]; PAF, read-out: ED50, extravasation induced by PAF): 6.1 mg/kg
ED50 ([1]; Zymosan, read-out: ED50, extravasation induced by Zymosan): 3.1 mg/kg
ED50 ([1]; arachidonic acid, read-out: ED50, extravasation induced by AA (arachidonic acid)): 20.5 mg/kg
ED50 ([1]; bradykinin, read-out: ED50, extravasation induced by Bradykinin): 32.6 mg/kg
ED50 ([1]; histamine, read-out: ED50, extravasation induced by Histamine): 37 mg/kg
Weight of the colon ([2]; 5 mg/kg orally twice a day): 2.2 ± 0.2 g
Myeloperoxidase activity ([2]; 5 mg/kg orally twice a day): 5.5 ± 1.4 UMPO/g/min
iNOS activity ([2]; 5 mg/kg orally twice a day): 131.7 ± 91.9 pmol/g/min
Macroscopic damage (MDS) ([2]; 5 mg/kg orally twice a day): 5.0 ± 0.9
Weight of the colon ([2]; 10 mg/kg orally twice a day): 2.1 ± 0.3 g
Myeloperoxidase activity ([2]; 10 mg/kg orally twice a day): 5.0 ± 1.7(*) UMPO/g/min
iNOS activity ([2]; 10 mg/kg orally twice a day): 98.6 ± 60.0 pmol/g/min
Macroscopic damage (MDS) ([2]; 10 mg/kg orally twice a day): 4.4 ± 0.8(*)
Weight of the colon ([2]; 20 mg/kg orally twice a day): 2.0 ± 0.2 g
Myeloperoxidase activity ([2]; 20 mg/kg orally twice a day): 5.1 ± 1.2(*) UMPO/g/min
iNOS activity ([2]; 20 mg/kg orally twice a day): 61.5 ± 31.4 pmol/g/min
Macroscopic damage (MDS) ([2]; 20 mg/kg orally twice a day): 3.5 ± 0.8(*)
reduction of macroscopic damage ([2]; doses of 10 and 20 mg/kg): about 50%
reduction of the increase in iNOS activity induced by TNBS ([2]; doses of 10 and 20 mg/kg): 50%
reduction of the increase in tissue MPO activity induced by TNBS ([2]; doses of 10 and 20 mg/kg): 40%
pIC50 [3]: 5.18
